Source: patent US9234000B2, “Benzylamine derivatives as inhibitors of plasma kallikrein” (KalVista Pharmaceuticals Limited, priority 2011, dated 2016)
≈ marks a conversion by molar mass, not a printed value.

What was measured:
[1] = Determination of thermodynamic solubility in phosphate buffer; assay type: physicochemical; conditions: pH 7.4, aqueous buffer, thermodynamic from solid, ammonium phosphate buffer pH7.4, 290 mOsm, 37° C., nominal 1 mg/mL, read-out: Solubility in PO4 buffer
Experimental: Determination of Thermodynamic Solubility in Phosphate Buffer
The thermodynamic solubility of compound was determined in Ammonium Phosphate Buffer (pH7.4, 290 mOsm). Compounds were made up at a nominal concentration of 1 mg/mL, vortexed then placed on a shaker for 1 h, 37° C. at approximately 950 rpm. Following incubation samples were transferred to eppendorf tubes and centrifuged at 15,000 g (r.c.f.) for 10 minutes at 37° C. The concentration of compound in the supernatant was determined by LC-MS/MS analysis using a calibration line prepared from a DMSO stock.

Human plasma kallikrein = Human plasma kallikrein (Homo sapiens (Human), UniProt P03952); experiment: Determination of the IC50 for plasma kallikrein; assay type: biochemical; conditions: 37° C., substrate H-DPro-Phe-Arg-AFC, read-out: IC50 (human PKal)
How it was run: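 Human plasma kallikrein incubated at 37° C with fluorogenic substrate H-DPro-Phe-Arg-AFC and varying compound concentrations. Initial reaction rate followed by absorbance change at 410 nm to give residual activity and IC50.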

Human KLK1 = Human KLK1 (Homo sapiens (Human), UniProt P06870); experiment: Determination of the IC50 for KLK1; assay type: biochemical; conditions: Human KLK1, 37° C., substrate H-DVal-Leu-Arg-AFC; Table 13
How it was run: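 hKLK1 + H-DVal-Leu-Arg-AFC, 37° C, varied cpd conc. Initial rate by A410 change → residual activity → IC50.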

Chain of Human plasma kallikrein (P03952 391-638): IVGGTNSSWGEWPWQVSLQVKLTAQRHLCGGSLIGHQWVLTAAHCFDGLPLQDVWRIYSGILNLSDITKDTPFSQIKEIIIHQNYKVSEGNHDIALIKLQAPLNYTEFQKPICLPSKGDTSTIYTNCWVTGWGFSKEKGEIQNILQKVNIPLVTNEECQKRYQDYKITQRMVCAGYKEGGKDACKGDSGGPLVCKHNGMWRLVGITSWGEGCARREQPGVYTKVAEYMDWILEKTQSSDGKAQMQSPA
Chain of Human plasma kallikrein (P03952 20-390 partner): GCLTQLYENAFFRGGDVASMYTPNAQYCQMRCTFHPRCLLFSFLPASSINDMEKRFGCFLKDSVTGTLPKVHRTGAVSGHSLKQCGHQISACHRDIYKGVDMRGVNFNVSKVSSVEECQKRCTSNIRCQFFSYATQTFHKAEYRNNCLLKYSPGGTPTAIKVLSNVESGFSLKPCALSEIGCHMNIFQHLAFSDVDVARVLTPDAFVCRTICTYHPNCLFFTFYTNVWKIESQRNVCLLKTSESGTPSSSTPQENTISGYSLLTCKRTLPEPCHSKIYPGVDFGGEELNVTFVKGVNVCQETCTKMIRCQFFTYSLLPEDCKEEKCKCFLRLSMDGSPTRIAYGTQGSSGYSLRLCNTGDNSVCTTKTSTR
Chain of Human KLK1 (P06870 25-262): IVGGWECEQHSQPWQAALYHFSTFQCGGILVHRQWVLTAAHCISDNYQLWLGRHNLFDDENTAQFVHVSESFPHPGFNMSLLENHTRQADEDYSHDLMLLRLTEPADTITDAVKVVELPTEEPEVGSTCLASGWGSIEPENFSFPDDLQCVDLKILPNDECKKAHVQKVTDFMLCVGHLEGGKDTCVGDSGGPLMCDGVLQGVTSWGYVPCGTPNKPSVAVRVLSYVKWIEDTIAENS

Compound | solubility at 1 h [1] [µg/mL] | IC50 (Human plasma kallikrein) [µM] | IC50 (Human KLK1) [µM]
CCOc1ccc(C[C@@H](NC(=O)c2ccno2)C(=O)N[C@@H](Cc2ccccc2)C(=O)NCc2ccc(CN)cc2)cc1 [Example 79, Isoxazole-5-carboxylic acid [(R)-1-[(S)-1-(4-aminomethyl-benzylcarbamoyl)-2-phenyl-ethylcarbamoyl]-2-(4-ethoxy-phenyl)-ethyl]-amide] | 2.4 (≈ 4.21 µM) | 0.038 | 8.6
CCOc1ccc(C[C@@H](NC(=O)c2sccc2Cl)C(=O)N[C@@H](Cc2ccccc2)C(=O)NCc2ccc(CN)cc2)cc1 [Example 116, 3-Chloro-thiophene-2-carboxylic acid [(R)-1-[(S)-1-(4-aminomethyl-benzylcarbamoyl)-2-phenyl-ethylcarbamoyl]-2-(4-ethoxy-phenyl)-ethyl]-amide] | 1.39 (≈ 2.24 µM) | 0.018 | 6.3
CCOc1ccc(C[C@@H](NC(=O)C2CCCCC2)C(=O)N[C@@H](Cc2ccccc2)C(=O)NCc2ccc(CN)cc2)cc1 [Example 75, Cyclohexanecarboxylic acid [(R)-1-[(S)-1-(4-aminomethyl-benzylcarbamoyl)-2-phenyl-ethylcarbamoyl]-2-(4-ethoxy-phenyl)-ethyl]-amide] | 1.06 (≈ 1.81 µM) | 0.27 | > 10
CCOc1ccc(C[C@@H](NC(=O)c2ccncc2)C(=O)N[C@@H](Cc2ccccc2)C(=O)NCc2ccc(CN)cc2)cc1 [Example 71, N-[(R)-1-[(S)-1-(4-Aminomethyl-benzylcarbamoyl)-2-phenyl-ethylcarbamoyl]-2-(4-ethoxy-phenyl)-ethyl]-isonicotinamide] | 22.1 (≈ 38.1 µM) | 0.077 | > 10
CCOc1ccc(C[C@@H](NC(=O)c2sccc2C)C(=O)N[C@@H](Cc2ccccc2)C(=O)NCc2ccc(CN)cc2)cc1 [Example 119, 3-Methyl-thiophene-2-carboxylic acid [(R)-1-[(S)-1-(4-aminomethyl-benzylcarbamoyl)-2-phenyl-ethylcarbamoyl]-2-(4-ethoxy-phenyl)-ethyl]-amide] | 1.61 (≈ 2.69 µM) | 0.015 | 6.1
CCOc1ccc(C[C@@H](NC(=O)c2ccc(F)cc2)C(=O)N[C@@H](Cc2ccccc2)C(=O)NCc2ccc(CN)cc2)cc1 [Example 99, N-[(R)-1-[(S)-1-(4-Aminomethyl-benzylcarbamoyl)-2-phenyl-ethylcarbamoyl]-2-(4-ethoxy-phenyl)-ethyl]-4-fluoro-benzamide] | 2.88 (≈ 4.83 µM) | 0.095 | > 10
CCOc1ccc(C[C@@H](NC(=O)c2ccccn2)C(=O)N[C@@H](Cc2ccccc2)C(=O)NCc2ccc(CN)cc2)cc1 [Example 81, Pyridine-2-carboxylic acid [(R)-1-[(S)-1-(4-aminomethyl-benzylcarbamoyl)-2-phenyl-ethylcarbamoyl]-2-(4-ethoxy-phenyl)-ethyl]-amide] | 1.3 (≈ 2.24 µM) | 0.04 | > 10
CCOc1ccc(C[C@@H](NC(=O)c2ccsc2)C(=O)N[C@@H](Cc2ccccc2)C(=O)NCc2ccc(CN)cc2)cc1 [Example 72, Thiophene-3-carboxylic acid-[(R)-1-[(S)-1-(4-aminomethyl-benzylcarbamoyl)-2-phenyl-ethylcarbamoyl]-2-(4-ethoxy-phenyl)-ethyl]-amide] | 6.9 (≈ 11.8 µM) | 0.046 | 9.1
CCOc1ccc(C[C@@H](NC(=O)c2ccccc2)C(=O)N[C@@H](Cc2ccccn2)C(=O)NCc2ccc(CN)cc2)cc1 [Example 140, N-[(R)-1-[(S)-1-(4-Aminomethyl-benzylcarbamoyl)-2-pyridin-2-yl-ethylcarbamoyl]-2-(4-ethoxy-phenyl)-ethyl]-benzamide] | 79.6 (≈ 137 µM) | 0.045 | > 10
CCOc1ccc(C[C@@H](NC(=O)c2[nH]ccc2C)C(=O)N[C@@H](Cc2ccccc2)C(=O)NCc2ccc(CN)cc2)cc1 [Example 124, 3-Methyl-1H-pyrrole-2-carboxylic acid [(R)-1-[(S)-1-(4-aminomethyl-benzylcarbamoyl)-2-phenyl-ethylcarbamoyl]-2-(4-ethoxy-phenyl)-ethyl]-amide] | 64.5 (≈ 111 µM) | 0.02 | 8.4
CCOc1ccc(C[C@@H](NC(=O)c2sccc2N)C(=O)N[C@@H](Cc2ccccc2)C(=O)NCc2ccc(CN)cc2)cc1 [Example 125, 3-Amino-thiophene-2-carboxylic acid [(R)-1-[(S)-1-(4-aminomethyl-benzylcarbamoyl)-2-phenyl-ethylcarbamoyl]-2-(4-ethoxy-phenyl)-ethyl]-amide] | 43.6 (≈ 72.7 µM) | 0.01 | 7

Continued, values first:

solubility at 1 h [1] [µg/mL] | IC50 (Human plasma kallikrein) [µM] | IC50 (Human KLK1) [µM] | Compound
2.86 (≈ 4.79 µM) | 0.083 | > 10 | CCOc1ccc(C[C@@H](NC(=O)c2ccccc2)C(=O)N[C@@H](Cc2ccc(F)cc2)C(=O)NCc2ccc(CN)cc2)cc1 [Example 143, N-[(R)-1-[(S)-1-(4-Aminomethyl-benzylcarbamoyl)-2-(4-fluoro-phenyl)-ethylcarbamoyl]-2-(4-ethoxy-phenyl)-ethyl]-benzamide]
69.7 (≈ 119 µM) | 0.01 | > 10 | CCOc1ccc(C[C@@H](NC(=O)c2cccs2)C(=O)N[C@@H](Cc2cccnc2)C(=O)NCc2ccc(CN)cc2)cc1 [Example 162, Thiophene-2-carboxylic acid [(R)-1-[(S)-1-(4-aminomethyl-benzylcarbamoyl)-2-pyridin-3-yl-ethylcarbamoyl]-2-(4-ethoxy-phenyl)-ethyl]-amide]
17.7 (≈ 27.6 µM) | 0.022 | 7.2 | CCOc1ccc(C[C@@H](NC(=O)c2sccc2NC(C)=O)C(=O)N[C@@H](Cc2ccccc2)C(=O)NCc2ccc(CN)cc2)cc1 [Example 179, 3-Acetylamino-thiophene-2-carboxylic acid-[(R)-1-[(S)-1-(4-aminomethyl-benzylcarbamoyl)-2-phenyl-ethylcarbamoyl]-2-(4-ethoxy-phenyl)-ethyl]-amide]
20.4 (≈ 33.5 µM) | 0.01 | > 10 | CCOc1ccc(C[C@@H](NC(=O)c2ccc(OC)cc2)C(=O)N[C@@H](Cc2cccnc2)C(=O)NCc2ccc(CN)cc2)cc1 [Example 160, N-[(R)-1-[(S)-1-(4-Aminomethyl-benzylcarbamoyl)-2-pyridin-3-yl-ethylcarbamoyl]-2-(4-ethoxy-phenyl)-ethyl]-4-methoxy-benzamide]
2.38 (≈ 3.88 µM) | 0.213 | > 10 | CCOc1ccc(C[C@@H](NC(=O)c2ccc(Cl)cc2)C(=O)N[C@@H](Cc2cccnc2)C(=O)NCc2ccc(CN)cc2)cc1 [Example 173, N-[(R)-1-[(S)-1-(4-Aminomethyl-benzylcarbamoyl)-2-pyridin-3-yl-ethylcarbamoyl]-2-(4-ethoxy-phenyl)-ethyl]-4-chloro-benzamide]
233 (≈ 408 µM) | 0.045 | > 10 | CCOc1ccc(C[C@@H](NC(=O)c2ccno2)C(=O)N[C@@H](Cc2cccnc2)C(=O)NCc2ccc(CN)cc2)cc1 [Example 174, Isoxazole-5-carboxylic acid [(R)-1-[(S)-1-(4-aminomethyl-benzylcarbamoyl)-2-pyridin-3-yl-ethylcarbamoyl]-2-(4-ethoxy-phenyl)-ethyl]-amide]
0.12 (≈ 0.205 µM) | 0.051 | > 10 | CCOc1ccc(C[C@@H](NC(=O)c2ccccc2)C(=O)N[C@@H](Cc2cccs2)C(=O)NCc2ccc(CN)cc2)cc1 [Example 150, N-[(R)-1-[(S)-1-(4-Aminomethyl-benzylcarbamoyl)-2-thiophen-2-yl-ethylcarbamoyl]-2-(4-ethoxy-phenyl)-ethyl]-benzamide]
68.9 (≈ 119 µM) | 0.025 | > 10 | CCOc1ccc(C[C@@H](NC(=O)c2ccccc2)C(=O)N[C@@H](Cc2cccnc2)C(=O)NCc2ccc(CN)cc2)cc1 [Example 145, N-[(R)-1-[(S)-1-(4-Aminomethyl-benzylcarbamoyl)-2-pyridin-3-yl-ethylcarbamoyl]-2-(4-ethoxy-phenyl)-ethyl]-benzamide]
70.6 (≈ 116 µM) | 0.047 | > 10 | CCOc1ccc(C[C@@H](NC(=O)c2ccc(OC)cc2)C(=O)N[C@@H](Cc2ccccn2)C(=O)NCc2ccc(CN)cc2)cc1 [Example 158, N-[(R)-1-[(S)-1-(4-Aminomethyl-benzylcarbamoyl)-2-pyridin-2-yl-ethylcarbamoyl]-2-(4-ethoxy-phenyl)-ethyl]-4-methoxy-benzamide]
0.15 (≈ 0.232 µM) | 0.055 | > 10 | CCOc1ccc(C[C@@H](NC(=O)c2ccccc2)C(=O)N[C@@H](Cc2ccc(Cl)c(Cl)c2)C(=O)NCc2ccc(CN)cc2)cc1 [Example 141, N-[(R)-1-[(S)-1-(4-Aminomethyl-benzylcarbamoyl)-2-(3,4-dichloro-phenyl)-ethylcarbamoyl]-2-(4-ethoxy-phenyl)-ethyl]-benzamide]
0.22 (≈ 0.358 µM) | 0.045 | 7.6 | CCOc1ccc(C[C@@H](NC(=O)c2ccccc2)C(=O)N[C@@H](Cc2ccc(F)c(F)c2)C(=O)NCc2ccc(CN)cc2)cc1 [Example 200, N—[(R)-1-[(S)-1-(4-Aminomethyl-benzylcarbamoyl)-2-(3,4-difluoro-phenyl)-ethylcarbamoyl]-2-(4-ethoxy-phenyl)-ethyl]-benzamide]
